Measured values as given in patent US4988687A, “Cephalosporin derivatives, and antibacterial agents” (priority 1986, dated 1991).
Values after ≈ are worked out from the molar mass of the structure shown. Like-named read-outs stand apart in the source and are kept apart here.

Columns and labels:
[1] = tested on: sensitive and resistant Gram-positive bacteria and Gram-negative bacteria particularly glucose non-fermentative Gram-negative rods; assay: antibacterial activity and spectrum (in words); type: cell-based; conditions: in vitro
Protocol: (§1) The in vitro antibacterial activities of the compounds of the present invention against various microorganisms, were measured by the following agar plate dilution method. One platinum loopfull of each test microorganism incubated overnight in Mueller Hinton broth, was inoculated to Mueller Hinton agar (inoculum size: 10^6 CFU/ml) Such culture media containing various antibiotics in various concentrations were prepared After incubation at 37° C. for 16 hours, the minimum inhibitory concentrations (MIC: μg/ml) were measured. As comparative compounds, cefotaxime, oeftazidime and the compounds disclosed in Example 2 of Japanese Unexamined Patent Publication No. 215690/1985 e.g. sodium 7-[2-(2-aminothiazol-4-yl)-2-ethoxyiminoacetamido]-3-(1-carboxylatemethylpyridinio-4-yl)thiomethyl-3-cephem-4-carboxylate (hereinafter referred to simply as "Reference Example A") were employed.

E. cloacae Nek 39 = assay: agar plate dilution method, MIC against E. cloacae Nek 39; type: cell-based; conditions: Enterobacter cloacae, NEK39; E. cloacae Nek 39 (lactamase-producing strain); 10^6 CFU/ml, 37° C., 16 hours; read-out: Minimum Inhibitory Concentration (MIC)
Protocol: as §1

C. freundii GN346 = assay: agar plate dilution method, MIC against C. freundii GN346; type: cell-based; conditions: Citrobacter freundii; C. freundii GN346 (lactamase-producing strain); 10^6 CFU/ml, 37° C., 16 hours; read-out: Minimum Inhibitory Concentration (MIC)
Protocol: as §1

M. morganii GN5407 = assay: agar plate dilution method, MIC against M. morganii GN5407; type: cell-based; conditions: Morganella morganii; M. morganii GN5407 (lactamase-producing strain); 10^6 CFU/ml, 37° C., 16 hours; read-out: Minimum Inhibitory Concentration (MIC)
Protocol: as §1

S. aureus BB5703 = assay: agar plate dilution method, MIC against S. aureus BB5703; type: cell-based; conditions: Staphylococcus aureus, BB5703, 16 h, read-out: Minimum Inhibitory Concentration (MIC)
Protocol: as §1

S. marcescens No. 16-2 = assay: agar plate dilution method, MIC against S. marcescens No. 16-2; type: cell-based; conditions: Serratia marcescens, read-out: Minimum Inhibitory Concentration (MIC)
Protocol: as §1

Ps. aeruginosa AK 109 = assay: agar plate dilution method, MIC against Ps. aeruginosa AK 109; type: cell-based; conditions: Pseudomonas aeruginosa, AK109; Ps. aeruginosa AK 109; 10^6 CFU/ml, 37° C., 16 hours; read-out: Minimum Inhibitory Concentration (MIC)
Protocol: as §1

S. aureus 209P NIHJ-JC1 = assay: agar plate dilution method, MIC against S. aureus 209P NIHJ-JC1; type: cell-based; conditions: Staphylococcus aureus, read-out: Minimum Inhibitory Concentration (MIC)
Protocol: as §1

C. freundii GN346/16 = assay: agar plate dilution method, MIC against C. freundii GN346/16; type: cell-based; conditions: Citrobacter freundii; C. freundii GN346/16; 10^6 CFU/ml, 37° C., 16 hours; read-out: Minimum Inhibitory Concentration (MIC)
Protocol: as §1

P. vulgaris HX-19 = assay: agar plate dilution method, MIC against P. vulgaris HX-19; type: cell-based; conditions: Proteus vulgaris, read-out: Minimum Inhibitory Concentration (MIC)
Protocol: as §1

E. coli CSH2 (RK1) = assay: agar plate dilution method, MIC against E. coli CSH2 (RK1); type: cell-based; conditions: Escherichia coli, 16 h, read-out: Minimum Inhibitory Concentration (MIC)
Protocol: as §1

A. calcoaceticus No. 4 = assay: agar plate dilution method, MIC against A. calcoaceticus No. 4; type: cell-based; conditions: Acinetobacter calcoaceticus; A. calcoaceticus No. 4; 10^6 CFU/ml, 37° C., 16 hours; read-out: Minimum Inhibitory Concentration (MIC)
Protocol: as §1

E. coli CSH(RE45) = assay: agar plate dilution method, MIC against E. coli CSH(RE45); type: cell-based; conditions: Escherichia coli, 16 h, read-out: Minimum Inhibitory Concentration (MIC)
Protocol: as §1

E. coli GN5482 = assay: agar plate dilution method, MIC against E. coli GN5482; type: cell-based; conditions: Escherichia coli; E. coli GN5482 (lactamase-producing strain); 10^6 CFU/ml, 37° C., 16 hours; read-out: Minimum Inhibitory Concentration (MIC)
Protocol: as §1

K. oxytoca GN10650 = assay: agar plate dilution method, MIC against K. oxytoca GN10650; type: cell-based; conditions: Klebsiella oxytoca, read-out: Minimum Inhibitory Concentration (MIC)
Protocol: as §1

Ps. maltophilia GN 12873 = assay: agar plate dilution method, MIC against Ps. maltophilia GN 12873; type: cell-based, Pseudomonas maltophilia; conditions: Stenotrophomonas maltophilia, GN12873; Ps. maltophilia GN 12873 (lactamase-producing strain); 10^6 CFU/ml, 37° C., 16 hours; read-out: Minimum Inhibitory Concentration (MIC)
Protocol: as §1

S. aureus JS1 = assay: agar plate dilution method, MIC against S. aureus JS1; type: cell-based; conditions: Staphylococcus aureus, read-out: Minimum Inhibitory Concentration (MIC)
Protocol: as §1

Ps. aeruginosa IFO3445 = assay: agar plate dilution method, MIC against Ps. aeruginosa IFO3445; type: cell-based; conditions: Pseudomonas aeruginosa; Ps. aeruginosa IFO3445; 10^6 CFU/ml, 37° C., 16 hours; read-out: Minimum Inhibitory Concentration (MIC)
Protocol: as §1

P. vulgaris No. 33 = assay: agar plate dilution method, MIC against P. vulgaris No. 33; type: cell-based; conditions: Proteus vulgaris; P. vulgaris No. 33 (lactamase-producing strain); 10^6 CFU/ml, 37° C., 16 hours; read-out: Minimum Inhibitory Concentration (MIC)
Protocol: as §1

Ps. aeruginosa AKR17 = assay: agar plate dilution method, MIC against Ps. aeruginosa AKR17; type: cell-based; conditions: Pseudomonas aeruginosa, AKR17, 16 h, read-out: Minimum Inhibitory Concentration (MIC)
Protocol: as §1

K. pneumoniae No. 42 = assay: agar plate dilution method, MIC against K. pneumoniae No. 42; type: cell-based; conditions: Klebsiella pneumoniae, read-out: Minimum Inhibitory Concentration (MIC)
Protocol: as §1

M. luteus ATCC9341 = assay: agar plate dilution method, MIC against M. luteus ATCC9341; type: cell-based; conditions: Micrococcus luteus, read-out: Minimum Inhibitory Concentration (MIC)
Protocol: as §1

S. marcescens IAM 1184 = assay: agar plate dilution method, MIC against S. marcescens IAM 1184; type: cell-based; conditions: Serratia marcescens, IAM1184; S. marcescens IAM 1184; 10^6 CFU/ml, 37° C., 16 hours; read-out: Minimum Inhibitory Concentration (MIC)
Protocol: as §1

E. cloacae 963 = assay: agar plate dilution method, MIC against E. cloacae 963; type: cell-based; conditions: Enterobacter cloacae; E. cloacae 963; 10^6 CFU/ml, 37° C., 16 hours; read-out: Minimum Inhibitory Concentration (MIC)
Protocol: as §1

E. coli NIHJ JC2 = assay: agar plate dilution method, MIC against E. coli NIHJ JC2; type: cell-based; conditions: Escherichia coli, NIHJJC2; E. coli NIHJ JC2; 10^6 CFU/ml, 37° C., 16 hours; read-out: Minimum Inhibitory Concentration (MIC)
Protocol: as §1

Ps. cepacia 23 = assay: agar plate dilution method, MIC against Ps. cepacia 23; type: cell-based, Pseudomonas cepacia; conditions: Burkholderia cepacia, 23, 16 h, read-out: Minimum Inhibitory Concentration (MIC)
Protocol: as §1

S. epidermidis IAM12012 = assay: agar plate dilution method, MIC against S. epidermidis IAM12012; type: cell-based; conditions: Staphylococcus epidermidis, IAM12012, 16 h, read-out: Minimum Inhibitory Concentration (MIC)
Protocol: as §1

K. pneumoniae PCI-602 = assay: agar plate dilution method, MIC against K. pneumoniae PCI-602; type: cell-based; conditions: Klebsiella pneumoniae, PCI602, 16 h, read-out: Minimum Inhibitory Concentration (MIC)
Protocol: as §1

Compound	antibacterial activities and antibacterial spectrum (in words) [1]	MIC (E. cloacae Nek 39) [µg/mL]	MIC (C. freundii GN346) [µg/mL]	MIC (M. morganii GN5407) [µg/mL]	MIC (S. aureus BB5703) [µg/mL]	MIC (Ps. aeruginosa AK 109) [µg/mL]	MIC (C. freundii GN346/16) [µg/mL]	MIC (E. coli CSH2 (RK1)) [µg/mL]	MIC (A. calcoaceticus No. 4) [µg/mL]	MIC (E. coli CSH(RE45)) [µg/mL]	MIC (E. coli GN5482) [µg/mL]	MIC (Ps. maltophilia GN 12873) [µg/mL]	MIC (Ps. aeruginosa IFO3445) [µg/mL]	MIC (P. vulgaris No. 33) [µg/mL]	MIC (Ps. aeruginosa AKR17) [µg/mL]	MIC (S. marcescens IAM 1184) [µg/mL]	MIC (E. cloacae 963) [µg/mL]	MIC (E. coli NIHJ JC2) [µg/mL]	MIC (Ps. cepacia 23) [µg/mL]	MIC (S. epidermidis IAM12012) [µg/mL]	further results
Nc1nc(C(=NOC(C(=O)O)c2ccc(O)c(O)c2)C(=O)NC2C(=O)N3C(C(=O)[O-])=C(CSc4cc[n+](CC(=O)O)cc4)CSC23)cs1 (stereo not drawn) [Example 5, 7-[2-(2-aminothiazol-4-yl)-2-(α-carboxy-3,4-dihydroxybenzyloxyimino)acetamido]-3-(1-carboxymethylpyridinio-4-yl)thiomethyl-3-cephem-4-carboxylate (syn-isomer)]	excellent antibacterial activities and a broad antibacterial spectrum	0.2 (≈ 0.279 µM)	25 (≈ 34.9 µM)	0.1 (≈ 0.14 µM)	3.12 (≈ 4.35 µM)	0.78 (≈ 1.09 µM)	0.39 (≈ 0.544 µM)	0.05 (≈ 0.0698 µM)	0.2 (≈ 0.279 µM)	0.05 (≈ 0.0698 µM)	0.2 (≈ 0.279 µM)	> 100	0.39 (≈ 0.544 µM)	0.05 (≈ 0.0698 µM)	1.56 (≈ 2.18 µM)	0.1 (≈ 0.14 µM)	0.1 (≈ 0.14 µM)	0.1 (≈ 0.14 µM)	< 0.006	1.56 (≈ 2.18 µM)	MIC (S. marcescens No. 16-2; NO.162, S. marcescens No. 16-2 (lactamase-producing strain), 10^6 CFU/ml, 37° C., 16 hours): 0.78 µg/mL (≈ 1.09 µM); MIC (S. aureus 209P NIHJ-JC1; S. aureus 209P NIHJ-JC1, 10^6 CFU/ml, Mueller Hinton agar, 37° C., 16 hours): 0.78 µg/mL (≈ 1.09 µM); MIC (P. vulgaris HX-19; HX19, 16 h): 0.025 µg/mL (≈ 0.0349 µM); MIC (K. oxytoca GN10650; K. oxytoca GN10650 (lactamase-producing strain), 10^6 CFU/ml, 37° C., 16 hours): 0.05 µg/mL (≈ 0.0698 µM); MIC (S. aureus JS1; JS1, 16 h): 6.25 µg/mL (≈ 8.72 µM); MIC (K. pneumoniae No. 42; K. pneumoniae No. 42 (lactamase-producing strain), 10^6 CFU/ml, 37° C., 16 hours): 0.2 µg/mL (≈ 0.279 µM); MIC (M. luteus ATCC9341; M. luteus ATCC9341, 10^6 CFU/ml, 37° C., 16 hours): 0.78 µg/mL (≈ 1.09 µM); MIC (K. pneumoniae PCI-602): < 6 ng/mL
CC(=O)Oc1ccc(C(O/N=C(\C(=O)NC2C(=O)N3C(C(=O)[O-])=C(CSc4cc[n+](CC(=O)O)cc4)CSC23)c2csc(N)n2)C(=O)O)cc1OC(C)=O (stereo not drawn) [Example 6, disodium 7-[2-(2-aminothiazol-4-yl)-2-(α-carboxylate-3,4-diacetoxybenzyloxyimino)acetamido]-3-(1-carboxylatemethylpyridinio-4-yl)thiomethyl-3-cephem-4-carboxylate (syn-isomer)]	excellent antibacterial activities and a broad antibacterial spectrum	0.78	25	0.2	6.25	0.78	0.39	0.05	0.39	0.05	0.39	> 100	0.78	0.1	1.56	0.2	0.39	0.2	0.025	3.12	MIC (S. marcescens No. 16-2; NO.162, 16 h): 1.56 µg/mL; MIC (S. aureus 209P NIHJ-JC1; 16 h): 1.56 µg/mL; MIC (P. vulgaris HX-19; HX19, P. vulgaris HX-19, 10^6 CFU/ml, 37° C., 16 hours): 0.1 µg/mL; MIC (K. oxytoca GN10650; GN10650, 16 h): 0.2 µg/mL; MIC (S. aureus JS1; S. aureus JS1 (methicilline resistant; lactamase-producing strain), 10^6 CFU/ml, 37° C., 16 hours): 25 µg/mL; MIC (K. pneumoniae No. 42; NO.42, 16 h): 0.1 µg/mL; MIC (M. luteus ATCC9341; ATCC9341, 16 h): 3.12 µg/mL; MIC (K. pneumoniae PCI-602): < 6 ng/mL
